According to ChEMBL document CHEMBL1201862, “PubChem BioAssay data set” (2004):
Active and inactive are the calls of the source.

What was measured:
Vero = test: host cell viability loss, Vero E6 – synthesized analogs, cytotoxicity control for West Nile virus antiviral project, SAR follow-up (AID 2244); format: functional; settings: Chlorocebus sabaeus
[1] = biological target: Dual specificity tyrosine-phosphorylation-regulated kinase 1A (Rattus norvegicus, UniProt Q63470); format: biochemical, Homo sapiens
[2] = biological target: T1, Mitochondrial peptide methionine sulfoxide reductase (Bos taurus, UniProt P54149); format: functional;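 also: absorbance read-out, biochemical high-throughput dose-response screen for MsrA inhibitors, confirmatory; recombinant bovine MsrA coupled to E. coli TrxB with NADPH and selenocystamine; potency is for inhibitors of MsrA activity on DMSO substrate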
T1 sequence (P54149 whole entry): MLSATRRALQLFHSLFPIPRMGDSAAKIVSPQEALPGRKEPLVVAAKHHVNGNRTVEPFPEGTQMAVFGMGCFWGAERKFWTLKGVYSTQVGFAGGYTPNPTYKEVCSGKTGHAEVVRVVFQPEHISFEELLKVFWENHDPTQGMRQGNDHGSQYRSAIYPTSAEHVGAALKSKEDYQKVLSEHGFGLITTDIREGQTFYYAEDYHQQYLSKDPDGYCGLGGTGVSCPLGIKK

Cytochrome P450 3A4 = Cytochrome P450 3A4 (Homo sapiens, UniProt P08684); settings: read-out: Potency;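 also: confirmatory qHTS run detecting inhibitors and substrates of CYP3A4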
Streptococcus = test: Luminescence Microorganism-Based Dose Response Follow up to Identify Compounds Cytotoxic to Streptococcus. [Related pubchem assays: 1677 (Project Summary), 1915, 1914, 1902 (Retest at Dose), 1900 (Counter Screen), 1662 (Primary HTS)]; format: functional, organism-based
[3] = biological target: Eukaryotic translation initiation factor 4H (Homo sapiens, UniProt Q15056); test: eIF4H binding inhibition – biochemical, uHTS, fluorescence polarization, translation initiation inhibitor project, primary screen (AID 2012)
[4] = biological target: Polyadenylate-binding protein 1 (Homo sapiens, UniProt P11940); test: blockers of PABP interaction with poly(A) – biochemical, fluorescence polarization, […] (AID 2014)
Cytochrome P450 2D6 = Cytochrome P450 2D6 (Homo sapiens, UniProt P10635); test: qHTS Assay for Inhibitors and Substrates of Cytochrome P450 2D6. [Related pubchem assays: 410 ]; format: ADME; settings: read-out: Potency
Cytochrome P450 2D6, sequence (P10635 whole entry): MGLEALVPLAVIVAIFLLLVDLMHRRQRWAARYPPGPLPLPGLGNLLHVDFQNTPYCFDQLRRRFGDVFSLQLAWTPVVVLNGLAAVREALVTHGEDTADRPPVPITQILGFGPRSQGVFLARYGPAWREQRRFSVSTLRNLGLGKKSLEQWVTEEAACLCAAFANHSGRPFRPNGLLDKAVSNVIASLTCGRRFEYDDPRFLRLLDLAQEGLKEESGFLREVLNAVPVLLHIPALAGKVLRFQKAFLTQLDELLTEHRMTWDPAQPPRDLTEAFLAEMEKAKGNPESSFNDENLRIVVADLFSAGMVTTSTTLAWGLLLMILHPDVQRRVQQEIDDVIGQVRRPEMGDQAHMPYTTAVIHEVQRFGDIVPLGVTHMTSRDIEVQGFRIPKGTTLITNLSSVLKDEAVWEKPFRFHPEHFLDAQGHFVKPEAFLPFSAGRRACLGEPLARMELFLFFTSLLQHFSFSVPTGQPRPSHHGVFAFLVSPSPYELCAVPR

Cytochrome P450 3A4, sequence (P08684 whole entry): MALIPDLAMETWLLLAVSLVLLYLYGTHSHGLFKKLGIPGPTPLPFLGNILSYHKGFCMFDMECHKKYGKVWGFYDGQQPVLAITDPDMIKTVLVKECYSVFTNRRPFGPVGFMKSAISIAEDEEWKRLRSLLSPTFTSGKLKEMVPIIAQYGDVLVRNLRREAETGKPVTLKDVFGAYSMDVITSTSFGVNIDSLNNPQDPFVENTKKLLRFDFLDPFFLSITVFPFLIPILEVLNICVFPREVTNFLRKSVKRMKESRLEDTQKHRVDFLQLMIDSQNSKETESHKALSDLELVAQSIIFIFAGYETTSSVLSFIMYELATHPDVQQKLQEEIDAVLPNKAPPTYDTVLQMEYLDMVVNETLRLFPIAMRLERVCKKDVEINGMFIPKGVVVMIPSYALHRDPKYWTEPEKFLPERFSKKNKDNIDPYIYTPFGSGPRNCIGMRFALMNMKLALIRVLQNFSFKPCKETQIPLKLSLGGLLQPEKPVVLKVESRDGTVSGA
Polyadenylate-binding protein 1, sequence (P11940 whole entry): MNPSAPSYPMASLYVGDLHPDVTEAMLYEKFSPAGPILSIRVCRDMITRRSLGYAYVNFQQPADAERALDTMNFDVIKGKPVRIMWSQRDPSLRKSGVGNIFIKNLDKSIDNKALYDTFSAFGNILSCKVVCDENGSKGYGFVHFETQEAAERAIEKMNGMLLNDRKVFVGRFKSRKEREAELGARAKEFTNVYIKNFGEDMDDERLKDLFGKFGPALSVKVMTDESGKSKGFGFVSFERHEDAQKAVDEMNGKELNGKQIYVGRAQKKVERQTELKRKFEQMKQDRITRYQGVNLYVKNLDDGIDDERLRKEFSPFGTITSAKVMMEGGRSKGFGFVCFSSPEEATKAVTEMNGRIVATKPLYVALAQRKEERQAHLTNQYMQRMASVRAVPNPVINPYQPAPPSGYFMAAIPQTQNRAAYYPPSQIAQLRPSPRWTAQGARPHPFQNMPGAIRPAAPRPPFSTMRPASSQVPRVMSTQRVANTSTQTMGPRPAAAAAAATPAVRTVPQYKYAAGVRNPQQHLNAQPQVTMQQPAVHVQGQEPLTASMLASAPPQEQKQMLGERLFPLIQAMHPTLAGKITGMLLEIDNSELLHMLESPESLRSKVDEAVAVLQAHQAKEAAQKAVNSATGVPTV

Question: How did the CC50 (Vero) turn out when `COc1ccc(-c2csc(NC(=O)c3ccccc3Cl)n2)cc1` was run?
Answer: > 40 µM (active)

Question: Which results are given for `COc1cc2c(cc1O)CC1c3c(cc(O)c(OC)c3-2)CCN1C` (stereo not drawn)?
Answer: AC50 [1]: 3.83 µM (active); IC50 [2]: 53.9 µM (inactive); AC50 (Cytochrome P450 3A4): 25.1 µM (inconclusive)

Question: `O=C(c1ccc(OC(F)(F)F)cc1)n1c2ccccc2c2ccccc21` was tested. Which EC50 (Streptococcus) did it give?
Answer: > 500 µM (not active)

Question: With `CCCCn1cc[n+](-c2nc3c([N+](=O)[O-])cccc3n2C)c1` as the compound, how does the IC50 [3] read?
Answer: > 100 µM (inactive)

Question: What about the IC50 [4] of the same compound?
Answer: 4.55 µM (active)

Question: `CC[C@@H]1[C@H]2CCCCN3[C@@H]2[C@@H](C[C@H]3[C@@H]2C[C@H](C)C(=O)O2)[C@@H]2[C@H]1OC(=O)[C@H]2C` was tested. Which AC50 (Cytochrome P450 2D6) did it give?
Answer: 10 µM (inconclusive)
